Experiment [1] concerns Pseudomonas aeruginosa ATCC27853. Briefly: Antibiotic sensitivity assay (CFUs/ml), P. aeruginosa. To be noted: compound 25 μM; ciprofloxacin 6.5 μM. The format is cell-based. Here is the method: Bacterial cultures were diluted to 10^5 cells/mL in LB broth (ATCC25922) or MH broth (ATCC27853, ATCC29212, ATCC29213). Antibiotics and/or phthalocyanines were added at indicated concentrations and the culture was incubated at 37° C. Samples were collected at 0, 24, 48, and 72 hours and plated on LB agar (ATCC25922) or tryptic soy blood agar (ATCC27853, ATCC29212, ATCC29213) to determine CFUs/ml.
To confirm that the activity of 4,4-Fe-PcTs was not specific to the gram-negative ATCC25922 E. coli, the ability of 4,4-Fe-PcTs to potentiate the activity of ciprofloxacin in another gram-negative (Pseudomonas aeruginosa ATCC27853) strain and two gram-positive (Staphylococcus aureus ATCC29213 and Enterococcus faecalis ATCC29212) strains was evaluated.

Experiment [2] deals with T1, EcRecA (Escherichia coli, UniProt P0A7G6). To be noted: compound 10 μM; poly-(dT)36-stimulated; relative to reaction without inhibitor.
T1 sequence (P0A7G6 whole entry): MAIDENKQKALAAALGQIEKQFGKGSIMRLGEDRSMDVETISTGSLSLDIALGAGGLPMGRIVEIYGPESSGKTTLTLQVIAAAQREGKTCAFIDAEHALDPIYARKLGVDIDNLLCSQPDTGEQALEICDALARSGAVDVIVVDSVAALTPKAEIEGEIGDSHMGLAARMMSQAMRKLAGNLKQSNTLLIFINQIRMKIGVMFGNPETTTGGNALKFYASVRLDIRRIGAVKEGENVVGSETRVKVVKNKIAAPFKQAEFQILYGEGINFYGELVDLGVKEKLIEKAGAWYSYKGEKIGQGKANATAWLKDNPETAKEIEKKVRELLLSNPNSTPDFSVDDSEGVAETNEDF
Method: An ATPase assay [18] was used to screen a set of commercially available anionic, aromatic molecules for inhibitors of RecA ATPase activity. The release of inorganic phosphate by ATP hydrolysis was monitored using a Malachite Green phosphate assay [18]. The ssDNA-dependent ATPase reaction contained 1 μM EcRecA, 6 μM ssDNA (poly-(dT)36, concentration in nucleotides), 5 mM ATP, 50 mM Tris-Hepes buffer at pH 7.4, 10 mM MgCl2, 0.1% v/v 2-mercaptoethanol, and indicated amounts of 4,4-Fe-PcTs or 3,4-Cu-PcTs. Phosphate levels were measured by transferring 25 μl of ATPase reaction to 475 μl of malachite green phosphate assay, which contained 0.033% w/v Malachite Green, 1.3% w/v ammonium molybdate. 1.0 M HCl was used to monitor the release of inorganic phosphate by ATP hydrolysis [18]. The green complex formed between Malachite Green, molybdate, and free orthophosphate was measured by recording the absorbance at 620 nm.
Results are the average of two independent experiments where the deviation was less than 10%.
In the next experiment the test system is E. coli ATCC25922. Briefly: Filamentation assay. The format is cell-based, Escherichia coli. To be noted: 4,4-Fe-PcTs 25 μM; CFX 40 nM; three hours. The protocol: Overnight cultures of E. coli ATCC25922 were grown in LB at 37° C. […] The cells were stained using the standard Gram staining technique and imaged using light microscopy at 100× magnification.

For experiment [3], the target named is T1, EcRecA. To be noted: gel shift; 0, 10, 100 μM.
The next experiment relates to ATCC25922 E. coli. Briefly: Ciprofloxacin resistance assay and reconstruction assay (in vitro mutagenesis). The format is cell-based, Escherichia coli.
The target in experiment [4] is T1, EcRecA. To be noted: gel shift; 0, 10, 100 μM. The protocol: EcRecA (4 μM), a 1.0-kb double-stranded DNA (dsDNA) PCR product (12 μM in base pairs), and indicated concentrations of 4,4-Fe-PcTs or 3,4-Cu-PcTs were incubated in binding buffer (5 mM MgAc2, 50 mM Tris-Hepes at pH 7.6) for 10 minutes at 37° C. EcRecA bound (slower migrating) and unbound dsDNA were resolved using a 1.0% agarose gel. The gel was stained with ethidium bromide and the fluorescence emission in the gel was recorded using a Kodak GelLogic 200 system.
This is another data set of the same source.

In a further experiment the test system is ATCC25922 cells. Briefly: Hydroxyl radical production (HPF, flow cytometry). The format is cell-based, Escherichia coli. To be noted: 4,4-Fe-PcTs 25 μM; ciprofloxacin 40 nM; three hours. The protocol: To confirm that 4,4-Fe-PcTs inhibited the SOS response by a mechanism independent of blocking hydroxyl radical production, the ability of 4,4-Fe-PcTs to decrease hydroxyl radical levels in the presence of bactericidal antibiotics was assayed. Hydroxyphenyl fluorescein was used to measure hydroxyl radical formation in bacteria. Hydroxyl radical production was measured using flow cytometry with […] fluorescein (HPF, Invitrogen) as described previously. ATCC25922 cells were grown to OD600 of 0.3. For cultures treated with 4,4-Fe-PcTs, the 4,4-Fe-PcTs was added to give a concentration of 25 μM and the culture was incubated for three hours at 37° C. […] Samples (˜10^6 cells) were taken immediately before the addition of antibiotics (time zero) and every hour for three hours. The samples were washed once in PBS, and resuspended in PBS prior to analysis by flow cytometry. Hydroxyl radical production was monitored using a flow cytometer (Beckman Coulter, Inc.) with a 488 nm argon laser and a 515-545 nm emission. Flow cytometry data were analyzed using Flowjo (Tree Star, Inc.).
On the technique in general: A flow cytometer gives signals particle by particle.

Experiment [5] concerns SOS response (E. coli strain SS996). Put plainly: SOS induction, GFP regulated by the sulA SOS promoter, flow cytometry. To be noted: 4,4-Fe-PcTs 25 μM, three hours. The format is cell-based, Escherichia coli. The protocol:
To confirm that the bactericidal antibiotic potentiating activity of 4,4-Fe-PcTs was correlated with reduced SOS induction, SOS induction in the E. coli strain SS996 was monitored. This strain contains a green fluorescent protein (GFP) regulated by the sulA SOS promoter.
SS996 cultures were grown to an optical density at 600 nm (OD600) of 0.3. For cultures treated with 4,4-Fe-PcTs, the 4,4-Fe-PcTs was added to give a concentration of 25 μM and the culture was incubated for three hours at 37° C. Antibiotics were then added to yield concentrations of 2.5 μM (CFX), 40 μM (AMP), 43 μM (KAN), 21 μM (TET), 46 μM (CAM), or 808 μM (SPECT). Samples (˜10^6 cells) were taken immediately before the addition of antibiotics (time zero) and every hour for three hours. Samples were washed once in PBS, and resuspended in PBS prior to analysis by flow cytometry. GFP expression was monitored using flow cytometer (Beckman Coulter, Inc.) with a 488 nm argon laser and a 515-545 nm emission. Flow cytometry data were analyzed using Flowjo (Tree Star, Inc.).

The target in a further experiment is EcRecA / EcLexA (Escherichia coli, UniProt P0A7G6). To be noted: in presence of ATPγS. The protocol: The LexA cleavage reaction (10 μl) contained 1 μM poly-(dT)45, 2 μM EcRecA, 10 μM EcLexA, 0.1 mM ATP-γ-S, 20 mM MgAc2, 50 mM Hepes-Tris at pH 7.6 and indicated concentrations of 4,4-Fe-PcTs or 3,4-Cu-PcTs. The reaction was incubated for 120 minutes at 21° C. and stopped by the addition of 5 μl of loading buffer (30% glycerol, 10% SDS, 0.2 M Tris-HCl at pH 6.8, 0.1% v/v 2-mercaptoethanol and 0.1% w/v bromophenol blue). The products were resolved using a 13% SDS-polyacrylamide gel. The proteins were stained with Coomassie Blue-R250.
Chain of EcRecA / EcLexA (P0A7G6 whole entry): as above

Method for ATCC25922 E. coli: An in vitro mutagenesis assay [1] was used to measure the ability of 4,4-Fe-PcTs to block the acquisition of ciprofloxacin-induced resistance in ATCC25922 E. coli. ATCC25922 cells were plated on media containing ciprofloxacin in the presence or absence of 4,4-Fe-PcTs and cultured for 10 days. Colonies that appeared early in the assay (days 1 and 2) are believed to arise from pre-existing ciprofloxacin resistance mutations [1]. Colonies that appear later in the incubation (days 3 to 8) are due to ciprofloxacin resistance mutations acquired during exposure to ciprofloxacin or pre-existing mutations with a slow growth phenotype [1].
To distinguish between these two types of mutants, a reconstruction assay that tests for the time it takes for colonies to appear in the presence of ciprofloxacin was used. Colonies that appear at least two days faster than they appeared in the original ciprofloxacin mutagenesis screen were classified as colonies that acquire resistance after exposure to ciprofloxacin [1]. Colonies that appeared in the same number of days as in the ciprofloxacin resistance assay were classified as colonies with pre-existing mutations [1].
Twenty-five independent colonies of ATCC2592 were used to inoculate 25 LB broth cultures that were incubated at 37° C. for 25 hours. Viable cell counts in these cultures were determined by plating serial dilutions onto LB agar plates. One hundred microliters from each culture (˜10^8 cells) were plated in duplicate on LB agar containing ciprofloxacin (CFX) (40 nM) or ciprofloxacin (40 nM) and 4,4-Fe-PcTs (25 μM) (CFX+4,4-Fe-PcTs). Three additional 100 μL aliquots from three cultures were also plated on the same media to determine the number of viable cells per day. At 24 hour intervals, visible colonies were counted, removed from the plate, and stored at −80° C. for later use in the reconstruction assay and sequencing. Every 24 hours, in parallel with the resistance assay, small plugs of agar between visible colonies were excised from resistance assay plates. Agar plugs were homogenized in M9 buffer. Dilutions were plated in duplicate on LB plates to determine the total number of viable cells per day. The cells were also plated on LB containing CFX (40 nM) to determine if any CFX-resistant colonies remained after excision [1].
Reconstruction assays were used to determine whether ciprofloxacin resistant colonies were due to post-exposure mutation or due to mutation prior to ciprofloxacin exposure. Ciprofloxacin resistant clones isolated from the resistance assay were grown to saturation in LB media in 96 well plates. Cultures were then replica-plated in duplicate using a 96-pin replicator on LB plates to confirm viability and LB plates containing ciprofloxacin (40 nM) to confirm ciprofloxacin resistance. Ciprofloxacin-resistant clones that were isolated in the presence 4,4-Fe-PcTs were replica plated on LB and LB containing 4,4-Fe-PcTs (25 μM) and ciprofloxacin (40 nM). Clones that were resistant before ciprofloxacin exposure were defined as clones that formed colonies on the ciprofloxacin-containing media in the same number of days in the reconstruction assay as in the original resistance assay. Clones that mutated after exposure to ciprofloxacin were defined as clones that formed colonies earlier than in the original resistance assay [1].
The rate of ciprofloxacin resistance was defined as the number of ciprofloxacin-resistant mutants per viable cell that evolve as a function of time. […]

As to “iron (III) phthalocyanine-4,4′,4″,4′″-tetrasulfonic acid [4,4-Fe-PcTs]”, in [1], the “potentiation of ciprofloxacin activity” value is listed as “potentiated the activity of ciprofloxacin”. Moreover, at EcRecA [2], the “inhibition of EcRecA ATPase activity” value is “high degree of inhibition”. Also, the “effect on ciprofloxacin-induced in vitro filamentation” value in the experiment with E. coli ATCC25922 is “reduced the ability of ciprofloxacin to induce”. Also, the “inhibition of RecA ssDNA-binding activity” value on EcRecA [3] is on record as “in the micromolar range”. For the same substance, the “total number of viable and ciprofloxacin-resistant cells relative to ciprofloxacin alone” value in the experiment on ATCC25922 E. coli (4,4-Fe-PcTs 25 μM + ciprofloxacin 40 nM) is given as “reduced”. In addition, the “ciprofloxacin resistant mutants over time” value in the experiment with ATCC25922 E. coli (cells treated with Fe-PcTs and ciprofloxacin) is on record as “no ciprofloxacin resistant mutants were observed after day 4”. In addition, the “ciprofloxacin-resistant colonies caused by pre-existing mutations” value in the experiment with ATCC25922 E. coli (ciprofloxacin (40 nM) and 4,4-Fe-PcTs (25 μM)) is 60%. The “inhibition of RecA dsDNA-binding activity” value at EcRecA [4] was “in the micromolar range”. Moreover, in the experiment on ATCC25922 cells, the “effect on ciprofloxacin-induced hydroxyl radicals” value is listed as “did not alter”. The “effect on ampicillin-induced SOS response (GFP)” value in [5] (AMP 40 μM) is “reduced the ability”. In experiment [5] (CFX 2.5 μM), the “effect on ciprofloxacin-induced SOS response (GFP)” value was “reduced the ability”. Further, the “inhibition of LexA cleavage” value at EcRecA / EcLexA was “inhibited”.

The record behind these values is US9393250B2, “Phthalocyanine compounds useful as RecA inhibitors and methods of using same” (University of Saskatchewan, priority 2012, dated 2016).
